From patent publication US9981986B2, “Antimicrobial compounds” (OXFORD UNIVERSITY INNOVATION LIMITED, priority 2012, dated 2018)
In brackets after ≈: the same amount, converted by molar mass.

How the values were obtained:
[1] = target: E. Coli RNAP (Escherichia coli, UniProt P0A8T7+P0A8V2); assay: In vitro activity against E. Coli RNAP; format: biochemical; conditions: read-out: RNA IC50
Source text: (§1) These properties can be determined according to techniques that are well known in the art.

[2] = target: T1, S. pneumonia UPPS (Streptococcus pneumoniae serotype 4, UniProt Q97SR4); assay: In vitro activity against S. pneumonia UPPS; format: biochemical; conditions: read-out: UPP IC50
T1 sequence (Q97SR4 1-252): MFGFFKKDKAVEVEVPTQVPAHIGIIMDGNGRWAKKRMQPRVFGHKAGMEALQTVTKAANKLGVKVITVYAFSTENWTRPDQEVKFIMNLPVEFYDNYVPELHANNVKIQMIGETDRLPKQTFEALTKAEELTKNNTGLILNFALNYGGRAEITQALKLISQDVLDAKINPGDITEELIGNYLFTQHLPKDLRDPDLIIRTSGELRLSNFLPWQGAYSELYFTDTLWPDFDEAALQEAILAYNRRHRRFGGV
Source text: as §1

[3] = test system: S. aureus membrane; assay: In vitro activity in depolarization of S. aureus membrane; format: cell-based; conditions: read-out: DEP IC50
Source text: as §1

[4] = test system: mammalian_red blood cell membrane; assay: In vitro mammalian red blood cell membrane lysis activity; format: cell-based; conditions: read-out: RBC IC50
Source text: as §1

[5] = test system: Candida albicans; assay: MIC determination (fungus), Candida albicans; format: cell-based
Description: MIC Determination (Fungus); MICs were determined for the antifungus by microdilution methods using RPMI 1640 medium buffered with morpholinopropanesulfonic acid (MOPS) and supplemented with L-glutamine as described by CLSI procedures (M27-A method) (Reference method for broth dilution antifungal susceptibility testing of yeasts; Approved standard—[…]. 2006, M27-A2, CLSI, Wayne Pa.).

[6] = test system: human embryonic kidney 293 cells; assay: in vitro toxicities against human embryonic kidney 293 cells; format: cell-based
Source text: as §1

[7] = test system: human peripheral blood cells; assay: in vitro toxicities human peripheral blood cells; format: cell-based
Source text: as §1

[8] = format: physicochemical; conditions: pH 7.4
Source text: as §1

[9] = test system: S. aureus 1, ATCC13709 in vivo (methicillin sensitive); assay: MIC determination (bacteria), S1; format: cell-based
Description: (§2) MIC Determination (Bacteria);
(§3) MICs were determined based on Clinical and Laboratory Standards Institute (CLSI) methodology (Methods for dilution antimicrobial susceptibility tests for bacteria that grow aerobically; Approved Standard—seventh edition. 2006, M7-A7, CLSI, Wayne Pa.) by a 2-fold broth dilution technique in Mueller Hinton (pH7.4 Biorad). For S. pneumoniae, the medium was supplemented with 2.5% laked horse blood. For H. influenzae, the medium was haemophilus test medium (H.T.M.). Overnight cultures were diluted to obtain the final inoculum of 10^5 cfu/well. Incubation was 37° C. overnight in ambient air. The MIC was defined as the lowest concentration which inhibited all visual growth and expressed in μg/ml. For each bacterial species, all of the molecules were tested in the same experiment in order to give a head-to-head comparison.

[10] = test system: S. aureus 26, ATCC25923 (vancomycin susceptible); assay: MIC determination (bacteria), S26; format: cell-based
Description: as §2, §3

[11] = test system: S. aureus 4, Oxford; assay: MIC determination (bacteria), S4; format: cell-based
Description: as §2, §3

[12] = test system: S. aureus 2, (MRSA in vivo); assay: MIC determination (bacteria), S2; format: cell-based
Description: as §2, §3

[13] = test system: E. faecalis 1, ATCC29212 VanS (vancomycin susceptible); assay: MIC determination (bacteria), E1; format: cell-based
Description: as §2, §3

[14] = test system: E. faecium 1, VanA (vancomycin resistant); assay: MIC determination (bacteria), E2; format: cell-based
Description: as §2, §3

[15] = test system: S. pneumonia 1, ATCC49619 (erythromycin susceptible); assay: MIC determination (bacteria), P1; format: cell-based
Description: as §2, §3

[16] = test system: S. pneumonia 9, (multi-drug resistant); assay: MIC determination (bacteria), P9 / P9B; format: cell-based; conditions: for MIC P9: S. pneumonia 9, multi-drug resistant; for MIC P9B: S. pneumonia 9 in presence of 2.5% horse blood
Description: as §2, §3

[17] = test system: H. influenzae 3, ATCC31517 MMSA; assay: MIC determination (bacteria), H3; format: cell-based
Description: as §2, §3

[18] = test system: H. influenzae 4, LS2 Efflux ko; assay: MIC determination (bacteria), H4; format: cell-based
Description: as §2, §3

[19] = test system: E. coli X580; assay: hole-plate method, inhibition zones, E. coli; format: cell-based; conditions: inhibition zone diameter
Description: (§4) Various compounds illustrative of the compounds of the present invention were synthesised and tested for their bioactivity. Microbiological assays were performed by the hole-plate method with the test organism Staphylococcus aureus N.C.T.C. 6571 or E. coli X580. […] The diameters of the resultant inhibition zones were measured.

[20] = test system: Staphylococcus aureus N.C.T.C. 6571; assay: hole-plate method, inhibition zones, S. aureus; format: cell-based; conditions: inhibition zone diameter
Description: as §4

[21] = test system: plasma protein; format: in vitro ADME
Source text: as §1

E. Coli RNAP, sequence (P0A8V2 whole entry): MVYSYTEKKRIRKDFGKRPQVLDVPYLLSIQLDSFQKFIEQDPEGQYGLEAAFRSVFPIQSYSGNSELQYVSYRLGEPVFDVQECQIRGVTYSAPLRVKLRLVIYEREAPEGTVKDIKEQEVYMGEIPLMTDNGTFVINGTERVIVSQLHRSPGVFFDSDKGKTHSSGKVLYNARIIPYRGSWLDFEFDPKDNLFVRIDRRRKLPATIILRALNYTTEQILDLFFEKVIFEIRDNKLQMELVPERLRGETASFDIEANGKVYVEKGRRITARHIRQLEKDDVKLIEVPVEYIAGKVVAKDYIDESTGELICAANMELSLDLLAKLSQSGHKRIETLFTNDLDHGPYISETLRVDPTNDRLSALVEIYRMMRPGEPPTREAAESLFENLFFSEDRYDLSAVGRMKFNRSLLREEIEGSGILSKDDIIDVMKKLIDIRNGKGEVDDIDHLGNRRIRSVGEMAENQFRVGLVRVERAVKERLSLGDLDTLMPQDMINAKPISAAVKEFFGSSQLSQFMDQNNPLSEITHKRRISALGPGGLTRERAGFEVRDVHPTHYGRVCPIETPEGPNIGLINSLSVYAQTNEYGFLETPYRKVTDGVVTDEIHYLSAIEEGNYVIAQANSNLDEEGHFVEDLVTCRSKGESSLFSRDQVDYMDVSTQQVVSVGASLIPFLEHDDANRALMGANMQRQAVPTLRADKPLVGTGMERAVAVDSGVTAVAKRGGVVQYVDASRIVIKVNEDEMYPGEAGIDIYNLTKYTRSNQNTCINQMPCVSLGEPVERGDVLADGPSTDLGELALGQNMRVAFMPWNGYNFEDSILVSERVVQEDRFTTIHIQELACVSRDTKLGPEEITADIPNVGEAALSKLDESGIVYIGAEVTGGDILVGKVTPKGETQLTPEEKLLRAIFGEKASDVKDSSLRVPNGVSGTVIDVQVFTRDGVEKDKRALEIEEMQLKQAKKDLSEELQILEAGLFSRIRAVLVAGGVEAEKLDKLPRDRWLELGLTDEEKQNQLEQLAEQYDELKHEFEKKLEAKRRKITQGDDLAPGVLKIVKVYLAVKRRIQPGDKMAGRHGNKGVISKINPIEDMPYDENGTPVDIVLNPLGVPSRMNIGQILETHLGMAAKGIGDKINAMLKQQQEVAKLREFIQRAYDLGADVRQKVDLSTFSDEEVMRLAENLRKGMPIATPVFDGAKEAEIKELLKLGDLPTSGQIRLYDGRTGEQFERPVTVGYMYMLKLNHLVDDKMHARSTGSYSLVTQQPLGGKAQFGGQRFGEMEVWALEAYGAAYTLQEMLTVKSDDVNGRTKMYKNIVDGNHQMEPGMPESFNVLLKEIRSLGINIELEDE
E. Coli RNAP, sequence (P0A8T7 whole entry): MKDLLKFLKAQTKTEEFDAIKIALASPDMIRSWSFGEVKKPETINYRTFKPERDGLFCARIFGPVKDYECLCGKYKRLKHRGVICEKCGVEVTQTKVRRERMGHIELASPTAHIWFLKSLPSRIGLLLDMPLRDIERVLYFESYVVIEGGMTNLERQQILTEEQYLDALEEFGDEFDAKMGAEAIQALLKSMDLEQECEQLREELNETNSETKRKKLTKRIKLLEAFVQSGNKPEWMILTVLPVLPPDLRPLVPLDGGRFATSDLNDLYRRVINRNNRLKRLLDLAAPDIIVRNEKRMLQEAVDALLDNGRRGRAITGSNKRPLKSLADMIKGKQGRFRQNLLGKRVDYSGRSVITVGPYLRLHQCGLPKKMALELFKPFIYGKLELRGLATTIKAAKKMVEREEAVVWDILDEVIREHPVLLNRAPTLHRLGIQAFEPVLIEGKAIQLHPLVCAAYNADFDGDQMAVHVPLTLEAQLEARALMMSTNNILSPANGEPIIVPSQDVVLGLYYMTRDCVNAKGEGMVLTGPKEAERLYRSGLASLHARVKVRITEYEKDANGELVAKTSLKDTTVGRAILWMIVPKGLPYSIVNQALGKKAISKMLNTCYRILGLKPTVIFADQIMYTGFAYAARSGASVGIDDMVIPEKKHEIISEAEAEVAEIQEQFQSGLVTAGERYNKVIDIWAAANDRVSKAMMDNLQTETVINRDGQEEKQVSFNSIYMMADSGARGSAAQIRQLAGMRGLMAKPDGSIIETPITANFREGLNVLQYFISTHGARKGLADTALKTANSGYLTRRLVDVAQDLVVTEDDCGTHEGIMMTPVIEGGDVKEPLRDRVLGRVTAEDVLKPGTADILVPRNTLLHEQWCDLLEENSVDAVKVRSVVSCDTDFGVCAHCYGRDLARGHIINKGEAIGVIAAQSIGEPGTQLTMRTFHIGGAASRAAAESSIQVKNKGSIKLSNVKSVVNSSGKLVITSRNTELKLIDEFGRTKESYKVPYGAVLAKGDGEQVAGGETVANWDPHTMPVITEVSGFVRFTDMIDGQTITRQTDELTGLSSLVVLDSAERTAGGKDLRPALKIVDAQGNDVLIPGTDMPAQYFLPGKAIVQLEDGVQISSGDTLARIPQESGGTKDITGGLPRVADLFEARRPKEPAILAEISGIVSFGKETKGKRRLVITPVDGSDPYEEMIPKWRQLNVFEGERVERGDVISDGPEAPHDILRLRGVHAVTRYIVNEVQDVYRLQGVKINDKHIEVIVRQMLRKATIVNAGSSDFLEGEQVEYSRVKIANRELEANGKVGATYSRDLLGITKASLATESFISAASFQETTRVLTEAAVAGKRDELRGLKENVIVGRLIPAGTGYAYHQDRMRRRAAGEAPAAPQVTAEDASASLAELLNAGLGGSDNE
E. Coli RNAP, sequence (P0A7Z4 whole entry partner): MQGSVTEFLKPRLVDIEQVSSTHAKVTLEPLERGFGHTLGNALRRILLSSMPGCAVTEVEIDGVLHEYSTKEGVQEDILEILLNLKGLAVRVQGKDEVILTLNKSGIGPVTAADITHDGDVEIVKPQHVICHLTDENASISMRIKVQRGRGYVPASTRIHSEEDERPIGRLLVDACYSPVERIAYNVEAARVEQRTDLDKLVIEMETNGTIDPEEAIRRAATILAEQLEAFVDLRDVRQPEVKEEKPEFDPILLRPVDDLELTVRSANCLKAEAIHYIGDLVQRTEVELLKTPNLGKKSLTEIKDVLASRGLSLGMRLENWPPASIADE
E. Coli RNAP, sequence (P0A800 whole entry partner): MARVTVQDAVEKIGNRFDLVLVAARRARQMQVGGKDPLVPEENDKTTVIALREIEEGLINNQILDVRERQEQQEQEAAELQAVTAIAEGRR

Structure (SMILES): CC(C)(C)C1OCC2(C)C(=O)C(C(=O)NC34CC5CC(CC(C5)C3)C4)C(=O)N12 (racemic) [(±)-2A]
- IC50 [1]: 17 µM
- IC50 [2]: 0.38 µM
- IC50 [3]: 10.8 µM
- IC50 [4]: > 100 µM
- CAN MIC [5]: >32 µg/mL
- HEK LD50 [6]: 30.3 µM
- PMB LD50 [7]: 30.3 µM
- SOL [8]: 75 to 150 µM
- MIC S1 [9]: 1 µg/mL (≈ 2.57 µM)
- MIC S26 [10]: 2 µg/mL (≈ 5.15 µM)
- MIC S4 [11]: 1 µg/mL (≈ 2.57 µM)
- MIC S2 [12]: 1 µg/mL (≈ 2.57 µM)
- MIC E1 [13]: 1 µg/mL (≈ 2.57 µM)
- MIC E2 [14]: 1 µg/mL (≈ 2.57 µM)
- MIC P1 [15]: 1 µg/mL (≈ 2.57 µM)
- MIC P9 [16]: 1 µg/mL (≈ 2.57 µM)
- MIC P9B [16]: 1 µg/mL
- MIC H3 [17]: 2 µg/mL (≈ 5.15 µM)
- MIC H4 [18]: 1 µg/mL (≈ 2.57 µM)

Structure (SMILES): CCOC(=O)CC(=O)N1C(c2ccc(F)cc2Cl)SC[C@@H]1C(=O)OC (stereo partly shown)
- Bioactivity (mm) E. coli (4 mg/ml) ([19]; 4 mg/ml): 16 mm

Structure (SMILES): CCOC(=O)C1=C(O)C2CSC(c3ccc(CO[Si](C)(C)C(C)(C)C)cc3)N2C1=O (stereo not shown)
- Bioactivity (mm) S. aureus (4 mg/ml) ([20]; Cm): 2.3 Cm

Structure (SMILES): CC(C)(C)[Si](C)(C)OCc1ccc([C@@H]2SCC3C(O)=C(C(=O)NC45CC6CC(CC(C6)C4)C5)C(=O)N32)cc1 (stereo partly shown)
- Bioactivity (mm) S. aureus 0.25 mg/ml [20]: 12 mm
- Bioactivity (mm) S. aureus 0.5 mg/ml [20]: 13 mm

Structure (SMILES): CCOC(=O)C12C(=O)C(=C(O)CC(C)(C)CC(=O)OCCC34CC5CC(CC(C5)C3)C4)C(=O)N1C(C(C)(C)C)OC2C (racemic) [Compound 6G]
- IC50 [1]: 2.4 µM
- IC50 [2]: 1.9 µM
- IC50 [3]: > 100 µM
- IC50 [4]: > 100 µM
- CAN MIC [5]: >32 µg/mL
- HEK LD50 [6]: 10.1 µM
- PMB LD50 [7]: >90.9 µM
- SOL [8]: >300 µM
- MIC S1 [9]: 0.5 µg/mL (≈ 0.851 µM)
- MIC S26 [10]: 1 µg/mL (≈ 1.7 µM)
- MIC S4 [11]: 1 µg/mL (≈ 1.7 µM)
- MIC S2 [12]: 0.5 µg/mL (≈ 0.851 µM)
- MIC E1 [13]: 1 µg/mL (≈ 1.7 µM)
- MIC E2 [14]: 0.5 µg/mL (≈ 0.851 µM)
- MIC P1 [15]: 2 µg/mL (≈ 3.4 µM)
- MIC P9 [16]: 1 µg/mL (≈ 1.7 µM)
- MIC P9B [16]: 4 µg/mL
- MIC H3 [17]: >64 µg/mL
- MIC H4 [18]: 2 µg/mL (≈ 3.4 µM)

Structure (SMILES): CCOC(=O)C1=C(O)C2CSC(c3ccc(Br)cc3)N2C1=O (stereo not shown)
- Bioactivity (mm) S. aureus (4 mg/ml) ([20]; Cm): 1.7 Cm

Structure (SMILES): O=C(NC12CC3CC(CC(C3)C1)C2)C1=C(O)C2CS[C@@H](c3ccccc3)N2C1=O (stereo partly shown)
- Bioactivity (mm) S. aureus 0.01 mg/ml [20]: 22 mm
- Bioactivity (mm) E. coli 0.001 mg/ml ([19]; 0.001 mg/ml): 15 mm
- Bioactivity (mm) E. coli 0.01 mg/ml [19]: 15 mm

Structure (SMILES): CC(C)(C)C1OCC2(C)C(O)=C(C(=O)NCC3CCCCC3)C(=O)N12 (racemic) [(±)-2E]
- IC50 [1]: 31 µM
- IC50 [2]: 0.68 µM
- IC50 [3]: 84.3 µM
- IC50 [4]: > 100 µM
- CAN MIC [5]: >32 µg/mL
- HEK LD50 [6]: 90.9 µM
- PMB LD50 [7]: 90.9 µM
- SOL [8]: >300 µM
- PPB [21]: 96.6%
- MIC S1 [9]: 4 µg/mL (≈ 11.4 µM)
- MIC S26 [10]: 4 µg/mL (≈ 11.4 µM)
- MIC S4 [11]: 4 µg/mL (≈ 11.4 µM)
- MIC S2 [12]: 2 µg/mL (≈ 5.71 µM)
- MIC E1 [13]: 2 µg/mL (≈ 5.71 µM)
- MIC E2 [14]: 1 µg/mL (≈ 2.85 µM)
- MIC P1 [15]: 2 µg/mL (≈ 5.71 µM)
- MIC P9 [16]: 1 µg/mL (≈ 2.85 µM)
- MIC P9B [16]: 1 µg/mL
- MIC H3 [17]: 4 µg/mL (≈ 11.4 µM)
- MIC H4 [18]: 0.12 µg/mL (≈ 0.342 µM)

Structure (SMILES): CCOC(=O)C12C(=O)C(=C(O)CC34CC5CC(C)(CC(C)(C5)C3)C4)C(=O)N1C(C(C)(C)C)OC2C (racemic) [Compound 6C]
- IC50 [1]: 4 µM
- IC50 [2]: 3.2 µM
- IC50 [3]: > 100 µM
- IC50 [4]: > 100 µM
- CAN MIC [5]: >32 µg/mL
- HEK LD50 [6]: 90.9 µM
- PMB LD50 [7]: >90.9 µM
- SOL [8]: >300 µM
- PPB [21]: 99.8%
- MIC S1 [9]: 2 µg/mL (≈ 4.1 µM)
- MIC S26 [10]: 2 µg/mL (≈ 4.1 µM)
- MIC S4 [11]: 2 µg/mL (≈ 4.1 µM)
- MIC S2 [12]: 1 µg/mL (≈ 2.05 µM)
- MIC E1 [13]: 2 µg/mL (≈ 4.1 µM)
- MIC E2 [14]: 1 µg/mL (≈ 2.05 µM)
- MIC P1 [15]: 0.5 µg/mL (≈ 1.03 µM)
- MIC P9 [16]: 0.5 µg/mL (≈ 1.03 µM)
- MIC P9B [16]: 1 µg/mL
- MIC H3 [17]: 64 µg/mL (≈ 131 µM)
- MIC H4 [18]: 0.25 µg/mL (≈ 0.513 µM)

Structure (SMILES): O=C(NC12CC3CC(CC(C3)C1)C2)C1=C(O)C2CS[C@@H](c3ccc([N+](=O)[O-])cc3)N2C1=O (stereo partly shown)
- Bioactivity (mm) S. aureus 0.001 mg/ml [20]: 19 mm
- Bioactivity (mm) S. aureus 0.01 mg/ml [20]: 25 mm
- Bioactivity (mm) E. coli 0.01 mg/ml [19]: 14 mm

Structure (SMILES): Cc1cc(Cl)ccc1NC(=O)C1=C(O)C2CS[C@@H](c3ccc(Br)cc3)N2C1=O (stereo partly shown)
- Bioactivity (mm) S. aureus 0.25 mg/ml [20]: 25 mm
- Bioactivity (mm) S. aureus 0.5 mg/ml [20]: 26 mm

Structure (SMILES): CCOC(=O)C1=C(O)C2CS[C@@H](c3ccc([N+](=O)[O-])cc3)N2C1=O (stereo partly shown)
- Bioactivity (mm) S. aureus (4 mg/ml) [20]: 16 mm

Structure (SMILES): O=C(NC12CC3CC(CC(C3)C1)C2)C1=C(O)C2CS[C@@H](c3ccc(F)cc3)N2C1=O (stereo partly shown)
- Bioactivity (mm) S. aureus 0.001 mg/ml [20]: 21 mm
- Bioactivity (mm) S. aureus 0.01 mg/ml [20]: 27 mm
- Bioactivity (mm) E. coli 0.01 mg/ml [19]: 14 mm

Structure (SMILES): CCOC(=O)C1=C(O)C2CS[C@@H](c3ccc(F)cc3Cl)N2C1=O (stereo partly shown)
- Bioactivity (mm) S. aureus (4 mg/ml) [20]: 18 mm

Structure (SMILES): O=C(NC12CC3CC(CC(C3)C1)C2)C1=C(O)C2CS[C@@H](c3ccc(F)cc3Cl)N2C1=O (stereo partly shown)
- Bioactivity (mm) S. aureus 0.001 mg/ml [20]: 21 mm
- Bioactivity (mm) S. aureus 0.01 mg/ml [20]: 25 mm
- Bioactivity (mm) E. coli 0.01 mg/ml [19]: 14 mm

Structure (SMILES): CCOC(=O)C1=C(O)C2CSC(c3cccc(Br)c3)N2C1=O (stereo not shown)
- Bioactivity (mm) S. aureus (4 mg/ml) ([20]; Cm): 2.0 Cm
